Test [1] has as its target GDP-bound KRAS wild-type protein (Homo sapiens, UniProt P01116). Description: Binding to KRAS by surface plasmon resonance (SPR), Single Cycle Kinetics. As to conditions: GDP-bound KRAS wild-type protein, read-out: KRAS KD.
For test [2], the target named is GDP-bound NRAS wild-type protein (Homo sapiens, UniProt P01111). The test can be described thus: Binding to NRAS by surface plasmon resonance (SPR), Single Cycle Kinetics. As to conditions: for NRAS/KRAS (ratio of KD value for NRAS to KD value for KRAS): GDP-bound NRAS wild-type protein vs GDP-bound KRAS wild-type protein.
Sequence of GDP-bound NRAS wild-type protein (P01111 whole entry): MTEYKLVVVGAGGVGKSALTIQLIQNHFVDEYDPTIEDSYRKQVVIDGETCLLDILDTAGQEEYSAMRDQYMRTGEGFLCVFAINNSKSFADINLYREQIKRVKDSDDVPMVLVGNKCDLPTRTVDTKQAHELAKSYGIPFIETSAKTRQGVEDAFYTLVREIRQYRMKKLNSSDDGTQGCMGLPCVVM
Test [3] concerns the target GDP-bound HRAS wild-type protein (Homo sapiens, UniProt P01112). Description: Binding to HRAS by surface plasmon resonance (SPR), Single Cycle Kinetics. To be noted: for HRAS/KRAS (ratio of KD value for HRAS to KD value for KRAS): GDP-bound HRAS wild-type protein vs GDP-bound KRAS wild-type protein.
For test [4], the system named is human lung cancer strain NCI-H441.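 Note: cell proliferation inhibition after four days measured by CellTiter-Glo.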
The mark [5] stands for this setting: SPR, Single Cycle Kinetics, 1:1 binding model.

Where two headings read alike, the source gives them in different places.

Sequence of GDP-bound KRAS wild-type protein (P01116 whole entry): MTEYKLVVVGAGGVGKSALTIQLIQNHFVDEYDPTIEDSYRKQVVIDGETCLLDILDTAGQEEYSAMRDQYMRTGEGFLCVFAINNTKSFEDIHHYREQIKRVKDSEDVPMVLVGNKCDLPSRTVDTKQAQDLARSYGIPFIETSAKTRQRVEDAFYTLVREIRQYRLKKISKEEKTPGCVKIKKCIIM
Sequence of GDP-bound HRAS wild-type protein (P01112 whole entry): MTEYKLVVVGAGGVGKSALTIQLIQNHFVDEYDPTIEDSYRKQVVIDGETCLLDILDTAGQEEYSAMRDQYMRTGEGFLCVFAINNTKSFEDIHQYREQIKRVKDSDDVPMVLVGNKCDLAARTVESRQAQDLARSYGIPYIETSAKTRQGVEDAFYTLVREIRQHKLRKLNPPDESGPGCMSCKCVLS

Consider `CCO[C@@H]1C[C@H]2C(=O)NC3(CCC3)C(=O)N(C)[C@@H](C3CCCC3)C(=O)N(C)[C@H](C(=O)N(C)C)CC(=O)N(C)[C@@H](CC3CC3)C(=O)N[C@@H]([C@@H](C)CC)C(=O)N(C)CC(=O)N(C)[C@H]3C/C=C\CCN(C3=O)[C@@H](Cc3ccc(C)cc3)C(=O)N(C)CC(=O)N[C@@H](CCc3ccc(Cl)c(Cl)c3)C(=O)N2C1` [PP1485], for which the Kd in test [1] (setting [5]) stood at 0.28 nM. Moreover, in test [2] (SPR, KD ratio class), the “NRAS/KRAS (ratio of KD value for NRAS to KD value for KRAS)” value is “A (a compound having 10 or more and less than 20 is denoted as A)”. The “HRAS/KRAS (ratio of KD value for HRAS to KD value for KRAS)” value in test [3] (SPR, KD ratio class) was “A (a compound having 10 or more and less than 20 is denoted as A)”. The compound further gave an IC50 in test [4] of 30.5 nM.

With `CCC[C@H]1C(=O)N[C@@H]([C@@H](C)CC)C(=O)N(C)CC(=O)N(C)[C@H]2C/C=C\CCN(C2=O)[C@@H](Cc2ccc(C)cc2)C(=O)N(C)CC(=O)N[C@@H](CCc2ccc(Cl)c(Cl)c2)C(=O)N2C[C@H](OCC)C[C@H]2C(=O)NC2(CC(C)(C)C2)C(=O)N(C)[C@@H](CC2CCC2)C(=O)N(C)[C@H](C(=O)N(C)C)CC(=O)N1C` [PP2755], in test [1] (SPR Single Cycle Kinetics, 1:1 binding model), the Kd is 0.56 nM. Also, in test [2] (SPR KD ratio NRAS/KRAS, class symbols), the “NRAS/KRAS (ratio of KD value with respect to GDP-bound NRAS wild-type protein to KD value with respect to KRAS)” value was “A (a compound having 10 or more and less than 20 is denoted as A)”. Moreover, the “HRAS/KRAS (ratio of KD value with respect to GDP-bound HRAS wild-type protein to KD value with respect to KRAS)” value in test [3] (SPR KD ratio HRAS/KRAS, class symbols) is “A (a compound having 10 or more and less than 20 is denoted as A)”. Also, in test [4], the IC50 is 35.7 nM.

Turning to `CCCOC[C@H]1C(=O)N[C@@H]([C@@H](C)CC)C(=O)N(C)CC(=O)N(C)[C@H]2C/C=C\CCN(C2=O)[C@@H](Cc2ccc(C)cc2)C(=O)N(C)CC(=O)N[C@@H](CCc2cc(F)c(C(F)(F)F)c(F)c2)C(=O)N2C[C@@H](C)C[C@H]2C(=O)NC2(CC(C)(C)C2)C(=O)N(C)[C@@H](C2CCCC2)C(=O)N(C)[C@H](C(=O)N(C)CC)CC(=O)N1C` [PP2471], the Kd in test [1] (SPR, Single Cycle Kinetics) was 0.16 nM. Moreover, the “NRAS/KRAS (ratio of KD value for NRAS to KD value for KRAS)” value in test [2] (SPR) is “A (a compound having 10 or more and less than 20 is denoted as A)”. Further, in test [3] (SPR), the “HRAS/KRAS (ratio of KD value for HRAS to KD value for KRAS)” value is “A (a compound having 10 or more and less than 20 is denoted as A)”. In addition, the IC50 in test [4] was found to be 15.3 nM.

As for `CCO[C@@H]1C[C@H]2C(=O)NC3(CCCC3)C(=O)N(C)[C@@H](C(CC)CC)C(=O)N(C)[C@H](C(=O)N3CCCC3)CC(=O)N(C)[C@@H](C)C(=O)N[C@@H]([C@@H](C)CC)C(=O)N(C)CC(=O)N(C)[C@H]3C/C=C\CCN(C3=O)[C@@H](CC3CCCCC3)C(=O)N(C)CC(=O)N[C@@H](CCc3cc(F)c(C(F)(F)F)c(F)c3)C(=O)N2C1` [PP1435], the Kd in test [1] (setting [5]) came out at 1.1 nM. Besides, in test [2] (SPR, KD ratio class), the “NRAS/KRAS (ratio of KD value for NRAS to KD value for KRAS)” value was “A (a compound having 10 or more and less than 20 is denoted as A)”. The “HRAS/KRAS (ratio of KD value for HRAS to KD value for KRAS)” value in test [3] (SPR, KD ratio class) was “A (a compound having 10 or more and less than 20 is denoted as A)”. In test [4], this compound showed an IC50 of 178 nM.

On to `CC[C@H](C)[C@@H]1NC(=O)[C@@H]2CCCCCc3ccc(cc3)C[C@@H](C(=O)N(C)CC(=O)N[C@@H](CCc3ccc(C(F)(F)F)c(OC)c3)C(=O)N3C[C@H](OC4CCC4)C[C@H]3C(=O)NC3(CC(C)(C)C3)C(=O)N(C)[C@@H](C3CCCC3)C(=O)N(C)[C@H](C(=O)N(C)C)CC(=O)N2C)N2CC/C=C\C[C@@H](C2=O)N(C)C(=O)CN(C)C1=O` [PP3073], for which the Kd in test [1] (SPR, Single Cycle Kinetics) is 0.025 nM. The “NRAS/KRAS (ratio of KD value for NRAS to KD value for KRAS)” value in test [2] (SPR) is “A (a compound having 10 or more and less than 20 is denoted as A)”. Also, in test [2] (SPR, KD(NRAS)/KD(KRAS)), the “ratio of the KD value with respect to GDP-bound NRAS wild-type protein to the KD value with respect to KRAS” value is “A (a compound having 10 or more and less than 20 is denoted as A)”. Besides, the “HRAS/KRAS (ratio of KD value for HRAS to KD value for KRAS)” value in test [3] (SPR) is “A (a compound having 10 or more and less than 20 is denoted as A)”. Moreover, the “ratio of the KD value with respect to GDP-bound HRAS wild-type protein to the KD value with respect to KRAS” value in test [3] (SPR, KD(HRAS)/KD(KRAS)) was “A (a compound having 10 or more and less than 20 is denoted as A)”. The IC50 in test [4] (read-out: NCI-H441 cell proliferation inhibitory activity, 50% proliferation inhibitory concentration (IC50 value), NCI-H441, four days, CellTiter-Glo) is 1.9 nM.

For `CC[C@H](C)[C@@H]1NC(=O)[C@H](CC(C)C)N(C)C(=O)C[C@@H](C(=O)N2CCOCC2)N(C)C(=O)[C@H](C2CCCC2)N(C)C(=O)C2(CCC2)NC(=O)[C@@H]2CCCN2C(=O)[C@H](CCc2cc(F)c(C(F)(F)F)c(F)c2)NC(=O)CN(C)C(=O)[C@H](Cc2ccc(C(F)(F)F)cc2)N2C[C@H](C)[C@H](C)C[C@@H](C2=O)N(C)C(=O)[C@@H]2CCN2C1=O` [PP1367], in test [1] (setting [5]), the Kd turned out to be 0.34 nM. Further, in test [2] (SPR, KD ratio class), the “NRAS/KRAS (ratio of KD value for NRAS to KD value for KRAS)” value is “A (a compound having 10 or more and less than 20 is denoted as A)”. Moreover, the “HRAS/KRAS (ratio of KD value for HRAS to KD value for KRAS)” value in test [3] (SPR, KD ratio class) is “B (a compound having 3 or more and less than 10 is denoted as B)”. Also, the IC50 in test [4] was 29.3 nM.

Take `CCO[C@@H]1C[C@H]2C(=O)NC3(CCC3)C(=O)N(C)[C@@H](C3CCCC3)C(=O)N(C)[C@H](C(=O)N3CCOCC3)CC(=O)N(C)[C@@H](Cc3cccs3)C(=O)N[C@@H]([C@@H](C)CC)C(=O)N(C)CC(=O)N(C)[C@H]3CCCCCN(C3=O)[C@@H](Cc3ccc(C(F)(F)F)cc3)C(=O)N(C)CC(=O)N[C@@H](CCc3cc(F)c(C(F)(F)F)c(F)c3)C(=O)N2C1` [PP1163]: in test [1] (SPR, Single Cycle Kinetics), the Kd amounted to 0.59 nM. Moreover, in test [2] (SPR), the “NRAS/KRAS (ratio of KD value for NRAS to KD value for KRAS)” value is “B (a compound having 3 or more and less than 10 is denoted as B)”. Further, in test [3] (SPR), the “HRAS/KRAS (ratio of KD value for HRAS to KD value for KRAS)” value is “B (a compound having 3 or more and less than 10 is denoted as B)”. The same compound gave an IC50 in test [4] of 93.3 nM.

For `CCO[C@@H]1C[C@H]2C(=O)NC3(CCC3)C(=O)N(C)[C@@H](C3CCCC3)C(=O)N(C)[C@H](C(=O)N(C)C)CC(=O)N(C)[C@@H](CC3CC3)C(=O)N[C@@H]([C@@H](C)CC)C(=O)N(C)CC(=O)N(C)[C@H]3C/C=C\CCN(C3=O)[C@@H](Cc3ccc(C)cc3)C(=O)N(C)CC(=O)N[C@@H](CCc3cc(F)c(Cl)c(F)c3)C(=O)N2C1` [PP1484], the equilibrium dissociation constant (Kd) in test [1] (setting [5]) stood at 0.45 nM. Besides, the “NRAS/KRAS (ratio of KD value for NRAS to KD value for KRAS)” value in test [2] (SPR, KD ratio class) is “A (a compound having 10 or more and less than 20 is denoted as A)”. Also, in test [3] (SPR, KD ratio class), the “HRAS/KRAS (ratio of KD value for HRAS to KD value for KRAS)” value is “A (a compound having 10 or more and less than 20 is denoted as A)”. In addition, in test [4], the IC50 was found to be 59.3 nM.

In the case of `CCC[C@H]1C(=O)N[C@@H]([C@@H](C)CC)C(=O)N(C)CC(=O)N(C)[C@H]2C/C=C\CCN(C2=O)[C@@H](Cc2ccc(C(F)(F)F)cc2)C(=O)N(C)CC(=O)N[C@@H](CCc2ccc3sccc3c2)C(=O)N2C[C@H](OCC)C[C@H]2C(=O)NC2(CCC2)C(=O)N(C)[C@@H](C(CC)CC)C(=O)N(C)[C@H](C(=O)N(C)C)CC(=O)N1C` [PP1224], the Kd in test [1] (setting [5]) worked out at 1.2 nM. The “NRAS/KRAS (ratio of KD value for NRAS to KD value for KRAS)” value in test [2] (SPR, KD ratio class) is “A (a compound having 10 or more and less than 20 is denoted as A)”. Besides, the “HRAS/KRAS (ratio of KD value for HRAS to KD value for KRAS)” value in test [3] (SPR, KD ratio class) was “A (a compound having 10 or more and less than 20 is denoted as A)”. In test [4], this compound yielded an IC50 of 122 nM.
